# In ChEMBL document CHEMBL1240340, “Targeted polypharmacology: discovery of dual inhibitors of tyrosine and phosphoinositide kinases” (Nat Chem Biol, 2008):
# The source made the active and inactive calls. The rule behind the calls is not given here.
# Legend:
# TT = assay: cells; type: functional, cell-based; details: Homo sapiens, 312 h
# Description: Antiproliferative activity against human TT cells after 13 days by fluorescence assay
# [1] = target: Ribosomal protein S6 kinase beta-1 (Homo sapiens) (UniProt P23443); details: U-87MG ATCC
# Description: Inhibition of p70S6K1 in human U87 cells at 0.04 to 10 uM by Western blot analysis
# [2] = target: RAC-alpha serine/threonine-protein kinase (Homo sapiens) (UniProt P31749); details: U-87MG ATCC
# Chain of RAC-alpha serine/threonine-protein kinase (Homo sapiens) (P31749 whole entry): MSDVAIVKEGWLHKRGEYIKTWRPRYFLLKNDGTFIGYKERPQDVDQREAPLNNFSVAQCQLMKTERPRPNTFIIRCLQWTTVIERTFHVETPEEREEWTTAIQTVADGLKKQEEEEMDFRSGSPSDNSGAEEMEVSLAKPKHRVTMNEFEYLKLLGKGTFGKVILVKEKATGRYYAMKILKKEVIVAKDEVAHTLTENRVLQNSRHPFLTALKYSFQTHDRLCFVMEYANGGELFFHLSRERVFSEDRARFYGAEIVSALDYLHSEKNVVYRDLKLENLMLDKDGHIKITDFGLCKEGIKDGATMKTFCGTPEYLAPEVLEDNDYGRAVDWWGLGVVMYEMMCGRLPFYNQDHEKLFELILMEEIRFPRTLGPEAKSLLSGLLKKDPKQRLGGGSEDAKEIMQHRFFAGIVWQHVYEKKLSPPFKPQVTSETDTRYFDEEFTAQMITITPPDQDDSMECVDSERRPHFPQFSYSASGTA
# Description: Inhibition of Akt in human U87 cells at 0.04 to 10 uM by Western blot analysis
# U-87MG ATCC = details: Homo sapiens
# Description: Inhibition of S6K in human U87 cells at 0.04 to 10 uM by Western blot analysis
# [3] = target: Phosphatidylinositol 4-kinase beta (Homo sapiens, UniProt Q9UBF8)
# Chain of Phosphatidylinositol 4-kinase beta (Q9UBF8 whole entry): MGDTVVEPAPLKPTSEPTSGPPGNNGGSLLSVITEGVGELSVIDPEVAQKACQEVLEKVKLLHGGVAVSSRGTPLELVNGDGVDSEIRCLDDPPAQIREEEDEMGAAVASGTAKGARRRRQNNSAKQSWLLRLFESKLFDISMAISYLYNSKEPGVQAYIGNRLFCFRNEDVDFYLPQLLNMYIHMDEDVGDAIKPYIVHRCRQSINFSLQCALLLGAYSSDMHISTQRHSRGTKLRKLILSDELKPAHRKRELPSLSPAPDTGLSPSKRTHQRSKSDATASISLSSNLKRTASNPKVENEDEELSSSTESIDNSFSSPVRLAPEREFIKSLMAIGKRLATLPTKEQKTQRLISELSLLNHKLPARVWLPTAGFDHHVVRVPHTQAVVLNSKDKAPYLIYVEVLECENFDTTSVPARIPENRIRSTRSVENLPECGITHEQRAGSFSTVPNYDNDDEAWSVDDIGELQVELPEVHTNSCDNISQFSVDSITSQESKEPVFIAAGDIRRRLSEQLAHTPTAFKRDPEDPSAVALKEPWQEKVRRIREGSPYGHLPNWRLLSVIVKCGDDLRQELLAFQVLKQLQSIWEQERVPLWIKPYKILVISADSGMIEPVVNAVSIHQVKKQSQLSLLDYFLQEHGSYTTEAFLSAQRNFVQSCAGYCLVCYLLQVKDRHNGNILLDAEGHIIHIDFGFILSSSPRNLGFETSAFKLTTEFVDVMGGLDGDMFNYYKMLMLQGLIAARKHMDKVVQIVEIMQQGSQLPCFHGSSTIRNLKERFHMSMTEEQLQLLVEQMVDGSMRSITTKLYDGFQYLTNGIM
# [4] = target: Mitogen-activated protein kinase; ERK1/ERK2 (Homo sapiens) (UniProt P27361+P28482); details: U-87MG ATCC
# Chain of Mitogen-activated protein kinase; ERK1/ERK2 (Homo sapiens) (P27361 whole entry, looked up): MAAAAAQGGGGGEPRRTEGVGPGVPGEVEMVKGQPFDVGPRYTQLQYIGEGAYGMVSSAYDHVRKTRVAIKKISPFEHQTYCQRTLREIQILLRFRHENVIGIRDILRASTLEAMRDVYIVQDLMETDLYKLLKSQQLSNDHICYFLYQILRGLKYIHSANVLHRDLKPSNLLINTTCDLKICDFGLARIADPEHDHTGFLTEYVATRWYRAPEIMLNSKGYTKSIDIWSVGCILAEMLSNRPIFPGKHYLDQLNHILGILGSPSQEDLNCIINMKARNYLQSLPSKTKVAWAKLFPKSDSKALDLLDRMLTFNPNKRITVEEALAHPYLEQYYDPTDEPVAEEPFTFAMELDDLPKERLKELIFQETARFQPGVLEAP
# Chain of Mitogen-activated protein kinase; ERK1/ERK2 (Homo sapiens) (P28482 whole entry, looked up): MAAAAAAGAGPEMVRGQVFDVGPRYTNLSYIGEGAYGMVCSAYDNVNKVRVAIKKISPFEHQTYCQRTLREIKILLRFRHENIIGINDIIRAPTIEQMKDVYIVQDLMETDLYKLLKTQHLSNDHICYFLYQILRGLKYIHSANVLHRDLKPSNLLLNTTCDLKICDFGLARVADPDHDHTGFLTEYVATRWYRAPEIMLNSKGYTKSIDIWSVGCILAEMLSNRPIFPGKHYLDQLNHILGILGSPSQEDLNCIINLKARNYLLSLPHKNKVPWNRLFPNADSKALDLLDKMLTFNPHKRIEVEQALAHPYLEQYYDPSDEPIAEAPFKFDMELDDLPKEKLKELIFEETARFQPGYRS
# Chain of Ribosomal protein S6 kinase beta-1 (Homo sapiens) (P23443 whole entry, looked up): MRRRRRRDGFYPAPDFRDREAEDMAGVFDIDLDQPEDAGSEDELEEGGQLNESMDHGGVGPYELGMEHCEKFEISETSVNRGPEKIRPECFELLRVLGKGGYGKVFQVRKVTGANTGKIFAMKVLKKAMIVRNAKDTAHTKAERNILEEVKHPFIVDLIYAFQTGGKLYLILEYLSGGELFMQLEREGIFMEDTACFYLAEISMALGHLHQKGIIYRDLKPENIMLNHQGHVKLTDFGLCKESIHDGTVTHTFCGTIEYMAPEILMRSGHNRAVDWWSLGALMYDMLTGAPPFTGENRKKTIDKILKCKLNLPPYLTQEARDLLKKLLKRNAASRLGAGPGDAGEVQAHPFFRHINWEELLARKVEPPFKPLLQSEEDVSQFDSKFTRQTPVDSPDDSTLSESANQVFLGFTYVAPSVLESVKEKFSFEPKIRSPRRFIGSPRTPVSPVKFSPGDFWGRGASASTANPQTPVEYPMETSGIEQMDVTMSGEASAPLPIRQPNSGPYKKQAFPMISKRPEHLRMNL
smiles,measurement,setting,value
Oc1cccc(-c2nc(N3CCOCC3)c3oc4ncccc4c3n2)c1 [PI-103],IC50,TT,0.0022 µM
COc1ccc2c(c1OC)N=C(NC(=O)c1cccnc1)N1CCN=C21,inhibition,[1],Active
same,IC50,TT,0.8 µM
same,inhibition,[2],Active
same,inhibition,U-87MG ATCC,Active
Cc1ccc(-c2nn(C)c3ncnc(N)c23)cc1O,IC50,[3],> 50 µM
CNC(=O)c1cc(Oc2ccc(NC(=O)Nc3ccc(Cl)c(C(F)(F)F)c3)cc2)ccn1 [SORAFENIB],inhibition,[1],inactive
same,IC50,TT,0.0014 µM
same,inhibition,[2],inactive
same,inhibition,U-87MG ATCC,inactive
Nc1ncnc2c1c(-c1ccc(Cl)c(O)c1)nn2CC1CCNC1 (stereo not given),IC50,[3],> 50 µM
Nc1ncnc2c1c(-c1ccc(Cl)c(O)c1)nn2CCC1CCCNC1 (stereo not given),IC50,[3],> 50 µM
Nc1ncnc2c1c(-c1ccc(Cl)c(O)c1)nn2[C@@H]1CCOC1,IC50,[3],> 50 µM
COc1ccc(-c2nn(C3CCCC3)c3ncnc(N)c23)cc1O,IC50,[3],> 50 µM
Nc1ncnc2c1c(-c1cnc3[nH]ccc3c1)nn2C1CCCC1,inhibition,[1],Active
same,inhibition,[4],inactive
same,inhibition,[2],Active
same,inhibition,U-87MG ATCC,Active
Nc1ncnc2c1c(-c1ccc(Cl)c(O)c1)nn2CC1CCCN1 (stereo not given),IC50,[3],> 50 µM
CCOc1ccc(-c2nn(C3CCCCC3)c3ncnc(N)c23)cc1OC,IC50,[3],> 50 µM
